tested on: A. baumannii NCTC 13420; experiment: Antibacterial assay, MIC/MBC by broth microdilution (CLSI); format: cell-based; conditions: A. baumannii NCTC 13420
Experimental: (§1) Antibacterial assay. The minimum inhibitory concentrations (MICs) and the minimum bactericidal concentrations (MBCs) were determined by the broth microdilution method as described in the CLSI (The Clinical & Laboratory Standards Institute) guidelines (Performance standards for antimicrobial susceptibility testing: Clinical and Laboratory Standards Institute (CLSI), Twenty-Fifth informational supplement. Document M100-S25: […]; Vol. 35). All bacterial strains were cultured in cation-adjusted Muller Hinton broth (CAMHB) up to log-phase and then diluted to give a concentration of 7.5×10^5 CFU/mL. The gold complexes were dissolved in DMSO or water as stock solutions, which were then serially diluted two-fold in a 96-well plate. Aliquots (100 μL) of the dilutions were mixed with equal volumes of the bacterium suspension in a 96 well plate (in triplicates). The plates were incubated at 37° C. for 18 h without shaking. Negative and positive controls were included in the same well plate with wells having the culture medium only and bacteria solution only, respectively. The sample concentration that gave inhibition values above 90% were determined as MICs as calculated from absorbance values at 600 nm (OD600) obtained using a Tecan SPARK IOM plate reader. To determine minimum bactericidal concentrations (MBCs), agar plates were treated with 5 μL sample solutions from each well, and then incubated at 37° C. for 18 h without shaking. The sample concentration that gave no colony formed on agar plates were determined as MBCs.
(§2) Selection of bacteria. The ESKAPE pathogens were chosen as they are responsible for the majority of nosocomial infections and also as they provide a good scope of strains including both Gram-negative and Gram-positive species. A. baumannii NCTC 13420 was originally identified in 24 hospitals in the UK during 2000-2003, which produced OXA-51-like β-lactamases, and was highly resistant to ampicillin, piperacillin, piperacillin/tazobactam, ceftazidime, cefotaxime, gentamicin and ciprofloxacin. P. aeruginosa NCTC13437 produces VIM-10 metallo-carbapenemase and VEB-1 (Vietnamese extended-spectrum beta-lactamase). Wild-type strain E. cloacae NCTC 13405 (originally named E. cloacae 684) was isolated from patients at the London Hospital during 1982-1983. This strain has inducible AmpC β-lactamase and is resistant to ampicillin/amoxicillin and cefoxitin. K. pneumoniae ATCC 700603 was isolated from the urine of a hospitalized patient in Richmond, Va. in 1994, and it produces SHV-18 extended spectrum beta-lactamase (ESBL). JE2 (USA300) is a methicillin-resistant S. aureus (MRSA) strain, also resistant to beta-lactams, ciprofloxacin, tetracycline, macrolides (erythromycin), lincosamides (clindamycin), streptogramin B, and mupirocin. E. faecium ATCC 700221, a positive fecal VRE (vancomycin-resistant enterococcus) isolate, is resistant to several antibiotics including vancomycin and teicoplanin. The quality control strain, Gram-negative E. coli ATCC 25922, was included in all assays and validated with ciprofloxacin and […].

Substance | MBC (in brackets)
(1-Thio-β-D-maltosato)(triethylphosphine) gold(I) [Compound 14] | 24 (24) μM/mL
(2-Acetamido-2-deoxy-1-thio-β-D-glucopyranosato)(trimethylphosphine) gold(I) [Compound 17] | 16 μM/mL

same assay, conditions: A. baumannii NCTC 13420; repeated twice, a/b = both values

Substance | MIC
(1-Thio-β-D-maltosato)(triethylphosphine) gold(I) [Compound 14] | 24 (24) μM/mL
(2-Acetamido-2-deoxy-1-thio-β-D-glucopyranosato)(trimethylphosphine) gold(I) [Compound 17] | 16/8
[β-D-galactopyranosyl-(1→4)-β-D-glucopyranosato](triethylphosphine) gold(I) [Compound 13] | 24/48

tested on: E. cloacae NCTC 13405; experiment: as above; format: cell-based; conditions: E. cloacae NCTC 13405
Experimental: as §1, §2

Substance | MBC (in brackets)
(1-Thio-β-D-maltosato)(triethylphosphine) gold(I) [Compound 14] | 190 (190) μM/mL
(2-Acetamido-2-deoxy-1-thio-β-D-glucopyranosato)(trimethylphosphine) gold(I) [Compound 17] | 16 μM/mL
[β-D-galactopyranosyl-(1→4)-β-D-glucopyranosato](triethylphosphine) gold(I) [Compound 13] | 190 (190) μM/mL

same assay, conditions: E. cloacae NCTC 13405; repeated twice, a/b = both values

Substance | MIC
(1-Thio-β-D-maltosato)(triethylphosphine) gold(I) [Compound 14] | 190 (190) μM/mL
(2-Acetamido-2-deoxy-1-thio-β-D-glucopyranosato)(trimethylphosphine) gold(I) [Compound 17] | 8/16
(Triphenylphosphine) gold chloride [Compound 31] | >518 μM/mL
[β-D-galactopyranosyl-(1→4)-β-D-glucopyranosato](triethylphosphine) gold(I) [Compound 13] | 190 (190) μM/mL

tested on: E. coli ATCC 25922; experiment: as above; format: cell-based; conditions: not given
Experimental: as §1, §2

Substance | MBC (in brackets)
(1-Thio-β-D-maltosato)(triethylphosphine) gold(I) [Compound 14] | 12 (12) μM/mL
(2-Acetamido-2-deoxy-1-thio-β-D-glucopyranosato)(trimethylphosphine) gold(I) [Compound 17] | (31) μM/mL
[β-D-galactopyranosyl-(1→4)-β-D-glucopyranosato](triethylphosphine) gold(I) [Compound 13] | 24 (24) μM/mL

same assay, conditions: repeated twice, a/b = both values

Substance | MIC
(1-Thio-β-D-maltosato)(triethylphosphine) gold(I) [Compound 14] | 12 (12) μM/mL
(2-Acetamido-2-deoxy-1-thio-β-D-glucopyranosato)(trimethylphosphine) gold(I) [Compound 17] | 8/31
(Triphenylphosphine) gold chloride [Compound 31] | >518 μM/mL
[β-D-galactopyranosyl-(1→4)-β-D-glucopyranosato](triethylphosphine) gold(I) [Compound 13] | 24 (24) μM/mL

tested on: E. faecalis ATCC 700221; experiment: as above; format: cell-based; conditions: not given
Experimental: as §1, §2

Substance | MBC (in brackets)
(1-Thio-β-D-maltosato)(triethylphosphine) gold(I) [Compound 14] | (0.4) μM/mL
(2-Acetamido-2-deoxy-1-thio-β-D-glucopyranosato)(trimethylphosphine) gold(I) [Compound 17] | (0.5) μM/mL
(Triphenylphosphine) gold chloride [Compound 31] | 4 (4) μM/mL
[β-D-galactopyranosyl-(1→4)-β-D-glucopyranosato](triethylphosphine) gold(I) [Compound 13] | (0.4) μM/mL

same assay, conditions: repeated twice, a/b = both values

Substance | MIC
(Triphenylphosphine) gold chloride [Compound 31] | 4 (4) μM/mL
[β-D-galactopyranosyl-(1→4)-β-D-glucopyranosato](triethylphosphine) gold(I) [Compound 13] | 0.09 μM/mL

tested on: K. pneumoniae ATCC 700603; experiment: as above; format: cell-based; conditions: K. pneumoniae ATCC 700603
Experimental: as §1, §2

Substance | MBC (in brackets)
(2-Acetamido-2-deoxy-1-thio-β-D-glucopyranosato)(trimethylphosphine) gold(I) [Compound 17] | 126 μM/mL
[β-D-galactopyranosyl-(1→4)-β-D-glucopyranosato](triethylphosphine) gold(I) [Compound 13] | 381 (381) μM/mL

same assay, conditions: K. pneumoniae ATCC 700603; repeated twice, a/b = both values

Substance | MIC
(1-Thio-β-D-maltosato)(triethylphosphine) gold(I) [Compound 14] | >381 μM/mL
(2-Acetamido-2-deoxy-1-thio-β-D-glucopyranosato)(trimethylphosphine) gold(I) [Compound 17] | 31 μM/mL
(Triphenylphosphine) gold chloride [Compound 31] | >518 μM/mL
[β-D-galactopyranosyl-(1→4)-β-D-glucopyranosato](triethylphosphine) gold(I) [Compound 13] | 381 (381) μM/mL

tested on: P. aeruginosa NCTC 13437; experiment: as above; format: cell-based; conditions: P. aeruginosa NCTC 13437
Experimental: as §1, §2

Substance | MBC (in brackets)
(1-Thio-β-D-maltosato)(triethylphosphine) gold(I) [Compound 14] | 381 (381) μM/mL
[β-D-galactopyranosyl-(1→4)-β-D-glucopyranosato](triethylphosphine) gold(I) [Compound 13] | 381 (381) μM/mL

same assay, conditions: P. aeruginosa NCTC 13437; repeated twice, a/b = both values

Substance | MIC
(1-Thio-β-D-maltosato)(triethylphosphine) gold(I) [Compound 14] | 381 (381) μM/mL
(2-Acetamido-2-deoxy-1-thio-β-D-glucopyranosato)(trimethylphosphine) gold(I) [Compound 17] | >503 μM/mL
(Triphenylphosphine) gold chloride [Compound 31] | >518 μM/mL
[β-D-galactopyranosyl-(1→4)-β-D-glucopyranosato](triethylphosphine) gold(I) [Compound 13] | 381 (381) μM/mL

tested on: S. aureus JE2 (USA300); experiment: as above; format: cell-based; conditions: S. aureus JE2 (USA300)
Experimental: as §1, §2

Substance | MBC (in brackets)
(1-Thio-β-D-maltosato)(triethylphosphine) gold(I) [Compound 14] | 4 (0.09) μM/mL
(2-Acetamido-2-deoxy-1-thio-β-D-glucopyranosato)(trimethylphosphine) gold(I) [Compound 17] | 0.5 (0.5) μM/mL
(Triphenylphosphine) gold chloride [Compound 31] | 4 μM/mL
[β-D-galactopyranosyl-(1→4)-β-D-glucopyranosato](triethylphosphine) gold(I) [Compound 13] | 5 (0.09) μM/mL

same assay, conditions: S. aureus JE2 (USA300); repeated twice, a/b = both values

Substance | MIC
(2-Acetamido-2-deoxy-1-thio-β-D-glucopyranosato)(trimethylphosphine) gold(I) [Compound 17] | 0.5 (0.5) μM/mL
(Triphenylphosphine) gold chloride [Compound 31] | 1/2

tested on: A549 cells; experiment: Cytotoxicity assay (resazurin); format: cell-based; conditions: 20 h, mean±S.E.M. from two independent experiments
Experimental: Sample preparation. The compounds were dissolved in DMSO at 12.8 mg/mL as the stock solutions, except for compounds 9-17, which were directly dissolved in the culture medium at 12.8 mg/mL. The stock solutions were diluted by the culture medium to the testing concentration at 128 μg/mL (compound 9-17 were diluted to 1,280 μg/mL). The solutions were then serially diluted two fold in a 96-well plate and were used in the cytotoxicity assay immediately.
Cell culture and cytotoxicity assay. A549 cells (ATCC CCL-185) were cultured in high glucose DMEM (Sigma-Aldrich, D6429) supplemented with 10% FBS, 1% penicillin-streptomycin solution (Sigma-Aldrich, P4333), 1% gentamicin solution (Sigma-Aldrich, G1272) and 1% amphotericin B solution (Sigma-Aldrich, A2942) at 37° C. in a humidified atmosphere containing 5% CO2. After cells reached 80%˜90% confluency, they were detached and counted using an Invitrogen Countess automated cell counter. Cells with viability over 90% were seeded at a density of 5×10^3 cells per well in 96-well cell culture plates. After overnight culture, the culture medium in each well removed with a pipet. 80 μL of the compound solutions from each well of the 96-well plate prepared above were transferred to this 96-well plate containing the cells, and the plates were incubated for 20 h. After addition of 8 μL of 110 μg/mL resazurin, the plates were incubated for further 3 h at 37° C. in 5% CO2. The fluorescence intensity was measured using a Tecan M200 Infinite Pro microplate reader at excitation 560 nm, emission 590 nm. IC50 were calculated by curve fitting the inhibition values vs. log(concentration) using GraphPad's Prism. The cytotoxicity assays (in triplicate) were repeated twice using freshly prepared cells and compound solutions.

Substance | IC50 against A549 cells [µg/mL]
(1-Thio-β-D-maltosato)(triethylphosphine) gold(I) [Compound 14] | 31.0 ± 2.4
(2-Acetamido-2-deoxy-1-thio-β-D-glucopyranosato)(trimethylphosphine) gold(I) [Compound 17] | 35.5 ± 0.9
(Triphenylphosphine) gold chloride [Compound 31] | 12.0 ± 1.8
[β-D-galactopyranosyl-(1→4)-β-D-glucopyranosato](triethylphosphine) gold(I) [Compound 13] | 32.9 ± 4.6

tested on: not listed separately; experiment: Log P determination (n-octanol/water, FAAS); conditions: not given
Experimental: Log P Determination: Calibration curves. Milli-Q Water (150 mL) was added to n-octanol (150 mL), and the mixture was stirred for 3 days to allow both phases to reach saturation. The gold standard solution (1000 ppm Au in hydrochloric acid, Fisher Scientific) was diluted to 1, 2, 3, 4 and 5 ppm with n-octanol-saturated water, and the absorbance of the resulting solutions was measured by flame atomic absorption spectroscopy (FAAS, Agilent Technology 200 Series AA, equipped with a gold HC Lamp-Au coded). The absorbance data were plotted against Au concentration, and the resulting calibration curve was used for determining the concentration of the analogs in the aqueous phase.
To construct the standard calibration curve of the Au concentration in the n-octanol phase, compound 27 was used. The Au concentration in compound 27 was first calibrated against the aqueous gold standard. For this, 0.440 mg of compound 27 was weighed on a Sartorius MC5 microbalance, and then added to 22 mL of n-octanol-saturated water. […] For this, solutions of varying concentrations (0.99, 2.47, 4.94, 5.93, 9.88 ppm) of compound 27 in water-saturated n-octanol were prepared. The absorbance was measured by FAAS, and the data were plotted against the Au concentration to provide a second calibration curve, which was used for determining the Au concentration of the analogs in the n-octanol phase.
Determination of Au concentrations: Method 1. 0.5 to 1 mg of compound was weighed into a 2-mL Eppendorf tube containing 2 mL of n-octanol-saturated water. After shaking for about 4 h, the solution was centrifuged at 6000 rpm for 3 min. 1 mL of the supernatant was transferred to a new tube containing 1 mL of water-saturated n-octanol, and the mixture was shaken for 1 h. After centrifugation at 6000 rpm for 5 min, the two layers were collected and the gold concentration in each layer was determined by FAAS by comparing the absorbance to the first and second calibration curves.
Determination of Au concentrations: Method 2. […] For Method 2, 0.6 to 1 mg of compound was weighed into a 2-mL Eppendorf tube containing 1 mL of n-octanol-saturated water and 1 mL of water-saturated n-octanol. After shaking for 3-4 h, the mixture was centrifuged, and all liquid was transferred to a 15-mL tube. The liquid was then diluted with 2 mL of n-octanol-saturated saturated water and 2 mL of water-saturated n-octanol, and the mixture was shaken for another hour. After centrifugation at 6000 rpm for 5 min, the two layers were collected and the gold concentration in each layer was determined by FAAS by comparing the absorbance to the first and second calibration curves.
Log P was calculated as follows: log P=log[compound]oct/[compound]water

Substance | Log P
(1-Thio-β-D-maltosato)(triethylphosphine) gold(I) [Compound 14] | −1.69
(2-Acetamido-2-deoxy-1-thio-β-D-glucopyranosato)(trimethylphosphine) gold(I) [Compound 17] | −2.03

same assay, conditions: n-octanol/water, gold by FAAS

Substance | Log P
(Triphenylphosphine) gold chloride [Compound 31] | >3.94

Reference: US20210198284A1, “GOLD COMPOSITIONS AND METHODS OF USE THEREOF” (THE UNIVERSITY OF MASSACHUSETTS, priority 2018, published 2021)
